Data set [1] has as its target T1, chimeric receptor containing the EGFR extracellular domain and intracellular HER2 kinase domain (Homo sapiens, UniProt P04626).
T1 construct: fused on or other part: EGFR ectodomain + HER2 intracellular part, ATP-site indolinones: HER2's kinase
In words: EGF Receptor-HER2 chimeric receptor assay in whole cells (ELISA). The data set is classed as cell-based. As to conditions: read-out: HER-2 kinase IC50. The procedure, abridged: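 NIH3T3 cells overexpressing EGFR-extracellular/HER2-kinase chimera, seeded in 0.5% serum for ~40 h, were pretreated with compound (1% final DMSO) 2 h at 37 °C, then stimulated with 100 nM EGF for 5 min. Lysates captured on anti-EGFR plates; phosphotyrosine detected by anti-Ptyr/HRP ELISA at 410 nm as percent inhibition.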
(In general: An ELISA detects its analyte on a solid surface through an enzyme-linked reagent.)

The test system of the next data set is SKOV3 cells. In words: SKOV3 growth assay (2% FBS). It is filed as cell-based. The following applies: Homo sapiens, SK-OV-3, read-out: SKOV3 growth (2% FBS) IC50.
A further data set has as its system A431 cells. In words: A431 growth assay (2% FBS). The data set is classed as cell-based. As to conditions: Homo sapiens, A-431, read-out: A431 growth (2% FBS) IC50.

5 compounds from patent US6855730B2, “3-methylidenyl-2-indolinone modulators of protein kinase” (Sugen, Inc., priority 1998, dated 2005) can be followed below.

The structures appear in SMILES notation.

T1 sequence (P04626 720-1255 limits assumed, change not shown): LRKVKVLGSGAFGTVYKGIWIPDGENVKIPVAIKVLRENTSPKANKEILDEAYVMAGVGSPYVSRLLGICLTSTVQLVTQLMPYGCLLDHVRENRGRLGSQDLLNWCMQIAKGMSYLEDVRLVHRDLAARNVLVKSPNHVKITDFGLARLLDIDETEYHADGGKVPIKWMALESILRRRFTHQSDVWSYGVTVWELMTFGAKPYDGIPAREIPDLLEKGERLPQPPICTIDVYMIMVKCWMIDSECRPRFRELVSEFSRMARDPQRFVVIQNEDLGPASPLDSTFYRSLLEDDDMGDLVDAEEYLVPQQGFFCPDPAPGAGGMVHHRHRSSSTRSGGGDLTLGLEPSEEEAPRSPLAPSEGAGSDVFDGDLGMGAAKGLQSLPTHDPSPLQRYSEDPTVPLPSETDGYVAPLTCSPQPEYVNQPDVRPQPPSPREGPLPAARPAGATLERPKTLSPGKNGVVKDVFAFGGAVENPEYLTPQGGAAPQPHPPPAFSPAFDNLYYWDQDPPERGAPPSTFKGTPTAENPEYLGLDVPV

As a reminder, the IC50 is the concentration that inhibits the measured activity by half. `CCOC(=O)c1c(C)[nH]c(/C=C2\C(=O)Nc3ccc(Br)cc32)c1CCC(=O)O` [Compound 114, 5-(5-Bromo-2-oxo-1,2-dihydroindol-3-ylidenemethyl)-4-(2-carboxyethyl)-2-methyl-1H-pyrrole-3-carboxylic acid ethyl ester]: the IC50 in data set [1] is 61.7 µM.
Turning to `Cc1cc(CCC(=O)O)c(/C=C2\C(=O)Nc3ccc(Br)cc32)[nH]1` [Compound 116, 3-[2-(5-Bromo-2-oxo-1,2-dihydroindol-3-ylidenemethyl)-5-methyl-1H-pyrrol-3-yl]-propionic acid], the IC50 in data set [1] is 6.07 µM.
For `COc1c(C(C)C)cc(/C=C2/C(=O)Nc3ccccc32)cc1C(C)C` [Example 1, 3-(3,5-Diisopropyl-4-methoxybenzylidene)-1,3-dihydroindol-2-one], the IC50 in data set [1] turned out to be 13.8 µM; in the data set with SKOV3 cells, 5.5 µM; in the data set with A431 cells, 5.4 µM.
The matching figures for `COc1c(C(C)C)cc(/C=C2/C(=O)Nc3ccc(Cl)cc32)cc1C(C)C` [Example 2, 5-Chloro-3-(3,5-diisopropyl-4-methoxybenzylidene)-1,3-dihydroindol-2-one]: 13.7 µM, 4.8 µM and 4.5 µM.
The melting point is the temperature of the solid-liquid transition. `COc1ccc2c(c1)NC(=O)/C2=C\c1[nH]c2c(c1CCC(=O)O)CCCC2` [Example 196, 3-[2-(6-Methoxy-2-oxo-1,2-dihydroindol-3-ylidenemethyl)-4,5,6,7-tetrahydro-1H-indol-3-yl]-propionic acid] registered a melting point of 263 to 266 °C.
